Reference: US4728509A, “Aqueous liquid preparation” (Takeda Chemical Industries, Ltd., priority 1985, dated 1988)
≈ marks a conversion by molar mass, not a printed value. Like-named read-outs stand apart in the source and are kept apart here.

Tests used:
[1] = Stability test of compound (a) in solution, remaining ratio at 60° C. (Experimental Example 2); assay type: physicochemical; settings: phosphate buffer, pH 7.5±0.1; for remaining at 1344 h: 60° C. after 8 weeks
Experimental: The stability of the compound (a) was tested by the following manner.
At first, the stability of the compound (a) without any adjuvant was tested for comparison.
Two samples were prepared by dissolving 100 mg and 250 mg each portion of the compound (a) in phosphate buffer. To each of the solutions was added a solution of sodium hydroxide to adjust the pH to 7.5±0.1, followed by addition of purified water to make the whole volume 100 ml, provided that the solution of 2.5 mg/ml was prepared at 40° C. Each solution was filled in a glass bottle, which was stored at 60° C. for evaluation of the stability.
The results were shown in Table 2 as remaining ratio (%).
Next, the effect of improving the stability of the compound (a), when a solubilizer of this invention was added to the solution containing the compound (a), was examined.
To each sample was added a given amount of a solubilizer as specified in the table, followed by working up in a similar manner to the above (pH 7.5±0.1) for evaluation of the stability.
The results were shown in Table 3 as remaining ratio (%).

[2] = Solubility of compound (a); assay type: physicochemical
[3] = Solubility test of compound (a) with and without solubilizers (Experimental Example 1; HPLC of filtrate); settings: phosphate buffer, Solubility of Compound (a), 48 hours
Experimental: Solubility tests of the compound (a) (2-amino-7-isopropyl-5-oxo-5H-[1]-benzopyrano[2,3-b]pyridine-3-carboxylic acid) employing the solubilizers of this invention and, for comparison, employing various conventional solubilizers were performed.
The solubility was measured by the following manner:
An excess amount of the compound (a) was added to a given volume of a phosphate buffer, the mixture was sufficiently stirred, then the pH was adjusted to a given level, the mixture was allowed to stand at room temperature (25° C.) for 48 hours, the resultant was subjected to filtration with 0.45μ membrane filter, followed by measuring the concentration of the compound (a) in the filtrate by means of high performance liquid chromatography.

CC(C)c1ccc2oc3nc(N)c(C(=O)O)cc3c(=O)c2c1 [Compound (a), 2-amino-7-isopropyl-5-oxo-5H-[1]-benzopyrano[2,3-b]pyridine-3-carboxylic acid]
remaining at 168 h ([1]; pH 7.5, compound (a) 1.0 mg/ml, PVP (MW 40,000) 20 mg/ml, 60° C. after 1 week): 99.5%
remaining at 336 h ([1]; pH 7.5, compound (a) 1.0 mg/ml, PVP (MW 40,000) 20 mg/ml, 60° C. after 2 weeks): 99.2%
remaining at 672 h ([1]; pH 7.5, compound (a) 1.0 mg/ml, PVP (MW 40,000) 20 mg/ml, 60° C. after 4 weeks): 98.4%
remaining at 1344 h ([1]; pH 7.5, compound (a) 1.0 mg/ml, PVP (MW 40,000) 20 mg/ml): 98.1%
remaining at 168 h ([1]; pH 7.5, compound (a) 2.5 mg/ml, PVP (MW 40,000) 50 mg/ml, 60° C. after 1 week): 98.9%
remaining at 336 h ([1]; pH 7.5, compound (a) 2.5 mg/ml, PVP (MW 40,000) 50 mg/ml, 60° C. after 2 weeks): 99.5%
remaining at 672 h ([1]; pH 7.5, compound (a) 2.5 mg/ml, PVP (MW 40,000) 50 mg/ml, 60° C. after 4 weeks): 99.1%
remaining at 1344 h ([1]; pH 7.5, compound (a) 2.5 mg/ml, PVP (MW 40,000) 50 mg/ml): 97%
remaining at 168 h ([1]; pH 7.5, compound (a) 5.0 mg/ml, PVP (MW 40,000) 10 mg/ml + caffeine 10 mg/ml, 60° C. after 1 week): 98.9%
remaining at 336 h ([1]; pH 7.5, compound (a) 5.0 mg/ml, PVP (MW 40,000) 10 mg/ml + caffeine 10 mg/ml, 60° C. after 2 weeks): 99.5%
remaining at 672 h ([1]; pH 7.5, compound (a) 5.0 mg/ml, PVP (MW 40,000) 10 mg/ml + caffeine 10 mg/ml, 60° C. after 4 weeks): 98.1%
remaining at 1344 h ([1]; pH 7.5, compound (a) 5.0 mg/ml, PVP (MW 40,000) 10 mg/ml + caffeine 10 mg/ml): 98.2%
remaining at 168 h ([1]; pH 7.5, compound (a) 10.0 mg/ml, PVP (MW 40,000) 50 mg/ml + β-CD 10 mg/ml, 60° C. after 1 week): 98.7%
remaining at 336 h ([1]; pH 7.5, compound (a) 10.0 mg/ml, PVP (MW 40,000) 50 mg/ml + β-CD 10 mg/ml, 60° C. after 2 weeks): 100%
remaining at 672 h ([1]; pH 7.5, compound (a) 10.0 mg/ml, PVP (MW 40,000) 50 mg/ml + β-CD 10 mg/ml, 60° C. after 4 weeks): 98.3%
remaining at 1344 h ([1]; pH 7.5, compound (a) 10.0 mg/ml, PVP (MW 40,000) 50 mg/ml + β-CD 10 mg/ml): 97.3%
remaining at 672 h ([1]; pH 7.5, no adjuvant, compound (a) 1.0 mg/ml, 60° C. after four weeks): 85.4%
remaining at 168 h ([1]; pH 7.5, no adjuvant, compound (a) 1.0 mg/ml, 60° C. after one week): 99.2%
remaining at 336 h ([1]; pH 7.5, no adjuvant, compound (a) 1.0 mg/ml, 60° C. after two weeks): 97.2%
remaining at 672 h ([1]; pH 7.5, no adjuvant, compound (a) 2.5 mg/ml, 60° C. after four weeks): 66.8%
remaining at 168 h ([1]; pH 7.5, no adjuvant, compound (a) 2.5 mg/ml, 60° C. after one week): 92.1%
remaining at 336 h ([1]; pH 7.5, no adjuvant, compound (a) 2.5 mg/ml, 60° C. after two weeks): 80.5%
amount of compound (a) dissolved by the aqueous liquid preparation of this invention ([2]; aqueous liquid preparation of this invention, pH 7.2-7.8): ≥ 3 mg/mL
solubility ([2]; neutral to alkaline region (pH 7.2-7.8), read-out: solubility): ~1100 µg/mL (≈ 3.69 mM)
solubility ([2]; water, 25° C., read-out: solubility in water): ~10 µg/mL (≈ 0.0335 mM)
solubility ([2]; water, pH 7.5, cold chamber (5° C.), read-out: solubility in water): 300 µg/mL (≈ 1.01 mM)
solubility at 48 h ([3]; pH 6, aqueous buffer, Caffeine 5 mg/ml, pH 6.0, 25° C.): 660 µg/mL (≈ 2.21 mM)
solubility at 48 h ([3]; pH 6, aqueous buffer, Caffeine 10 mg/ml, pH 6.0, 25° C.): 1650 µg/mL (≈ 5.53 mM)
solubility at 48 h ([3]; pH 6, aqueous buffer, Control, no solubilizer, pH 6.0, 25° C.): 20 µg/mL (≈ 0.067 mM)
solubility at 48 h ([3]; pH 6, aqueous buffer, Polyvinylpyrrolidone (average molecular weight 40000) 10 mg/ml, pH 6.0, 25° C.): 120 µg/mL (≈ 0.402 mM)
solubility at 48 h ([3]; pH 6, aqueous buffer, Polyvinylpyrrolidone (average molecular weight 40000) 50 mg/ml, pH 6.0, 25° C.): 320 µg/mL (≈ 1.07 mM)
solubility at 48 h ([3]; pH 6, aqueous buffer, Polyvinylpyrrolidone (average molecular weight 40000) 100 mg/ml, pH 6.0, 25° C.): 1590 µg/mL (≈ 5.33 mM)
solubility at 48 h ([3]; pH 6, aqueous buffer, Sodium benzoate 20 mg/ml, pH 6.0, 25° C.): 40 µg/mL (≈ 0.134 mM)
solubility at 48 h ([3]; pH 6, aqueous buffer, Tween 80 10 mg/ml, pH 6.0, 25° C.): 80 µg/mL (≈ 0.268 mM)
solubility at 48 h ([3]; pH 6, aqueous buffer, β-Cyclodextrin 10 mg/ml, pH 6.0, 25° C.): 720 µg/mL (≈ 2.41 mM)
solubility at 48 h ([3]; pH 6.5, aqueous buffer, Caffeine 5 mg/ml, pH 6.5, 25° C.): 1500 µg/mL (≈ 5.03 mM)
solubility at 48 h ([3]; pH 6.5, aqueous buffer, Caffeine 10 mg/ml, pH 6.5, 25° C.): 2670 µg/mL (≈ 8.95 mM)
solubility at 48 h ([3]; pH 6.5, aqueous buffer, Control, no solubilizer, pH 6.5, 25° C.): 80 µg/mL (≈ 0.268 mM)
solubility at 48 h ([3]; pH 6.5, aqueous buffer, Isoniazid 10 mg/ml, pH 6.5, 25° C.): 850 µg/mL (≈ 2.85 mM)
solubility at 48 h ([3]; pH 6.5, aqueous buffer, Nicotinic acid amide 10 mg/ml, pH 6.5, 25° C.): 820 µg/mL (≈ 2.75 mM)
solubility at 48 h ([3]; pH 6.5, aqueous buffer, Polyvinylpyrrolidone (average molecular weight 40000) 10 mg/ml, pH 6.5, 25° C.): 420 µg/mL (≈ 1.41 mM)
solubility at 48 h ([3]; pH 6.5, aqueous buffer, Polyvinylpyrrolidone (average molecular weight 40000) 50 mg/ml, pH 6.5, 25° C.): 1230 µg/mL (≈ 4.12 mM)
solubility at 48 h ([3]; pH 6.5, aqueous buffer, Polyvinylpyrrolidone (average molecular weight 40000) 100 mg/ml, pH 6.5, 25° C.): 4630 µg/mL (≈ 15.5 mM)
solubility at 48 h ([3]; pH 6.5, aqueous buffer, Sodium benzoate 20 mg/ml, pH 6.5, 25° C.): 290 µg/mL (≈ 0.972 mM)
solubility at 48 h ([3]; pH 6.5, aqueous buffer, Tween 80 10 mg/ml, pH 6.5, 25° C.): 470 µg/mL (≈ 1.58 mM)
solubility at 48 h ([3]; pH 6.5, aqueous buffer, β-Cyclodextrin 10 mg/ml, pH 6.5, 25° C.): 1400 µg/mL (≈ 4.69 mM)
solubility at 48 h ([3]; pH 7, aqueous buffer, Caffeine 5 mg/ml, pH 7.0, 25° C.): 3720 µg/mL (≈ 12.5 mM)
solubility at 48 h ([3]; pH 7, aqueous buffer, Caffeine 10 mg/ml, pH 7.0, 25° C.): 7050 µg/mL (≈ 23.6 mM)
solubility at 48 h ([3]; pH 7, aqueous buffer, Control, no solubilizer, pH 7.0, 25° C.): 330 µg/mL (≈ 1.11 mM)
solubility at 48 h ([3]; pH 7, aqueous buffer, Isoniazid 10 mg/ml, pH 7.0, 25° C.): 1330 µg/mL (≈ 4.46 mM)
solubility at 48 h ([3]; pH 7, aqueous buffer, Nicotinic acid amide 10 mg/ml, pH 7.0, 25° C.): 1210 µg/mL (≈ 4.06 mM)
solubility at 48 h ([3]; pH 7, aqueous buffer, Polyvinylpyrrolidone (average molecular weight 40000) 10 mg/ml, pH 7.0, 25° C.): 1060 µg/mL (≈ 3.55 mM)
solubility at 48 h ([3]; pH 7, aqueous buffer, Polyvinylpyrrolidone (average molecular weight 40000) 50 mg/ml, pH 7.0, 25° C.): 3230 µg/mL (≈ 10.8 mM)
solubility at 48 h ([3]; pH 7, aqueous buffer, Polyvinylpyrrolidone (average molecular weight 40000) 100 mg/ml, pH 7.0, 25° C.): 10000 µg/mL (≈ 33.7 mM)
solubility at 48 h ([3]; pH 7, aqueous buffer, Sodium benzoate 20 mg/ml, pH 7.0, 25° C.): 420 µg/mL (≈ 1.41 mM)
solubility at 48 h ([3]; pH 7, aqueous buffer, β-Cyclodextrin 10 mg/ml, pH 7.0, 25° C.): 2300 µg/mL (≈ 7.71 mM)
solubility at 48 h ([3]; pH 7.5, aqueous buffer, Caffeine 5 mg/ml, pH 7.5, 25° C.): 7440 µg/mL (≈ 24.9 mM)
solubility at 48 h ([3]; pH 7.5, aqueous buffer, Caffeine 10 mg/ml, pH 7.5, 25° C.): 9210 µg/mL (≈ 30.9 mM)
solubility at 48 h ([3]; pH 7.5, aqueous buffer, Control, no solubilizer, pH 7.5, 25° C.): 1050 µg/mL (≈ 3.52 mM)
solubility at 48 h ([3]; pH 7.5, aqueous buffer, Isoniazid 10 mg/ml, pH 7.5, 25° C.): 1560 µg/mL (≈ 5.23 mM)
solubility at 48 h ([3]; pH 7.5, aqueous buffer, Nicotinic acid amide 10 mg/ml, pH 7.5, 25° C.): 1530 µg/mL (≈ 5.13 mM)
solubility at 48 h ([3]; pH 7.5, aqueous buffer, Polyvinylpyrrolidone (average molecular weight 40000) 10 mg/ml, pH 7.5, 25° C.): 3150 µg/mL (≈ 10.6 mM)
solubility at 48 h ([3]; pH 7.5, aqueous buffer, Polyvinylpyrrolidone (average molecular weight 40000) 50 mg/ml, pH 7.5, 25° C.): 10400 µg/mL (≈ 34.7 mM)
solubility at 48 h ([3]; pH 7.5, aqueous buffer, Polyvinylpyrrolidone (average molecular weight 40000) 100 mg/ml, pH 7.5, 25° C.): 18500 µg/mL (≈ 61.9 mM)
solubility at 48 h ([3]; pH 7.5, aqueous buffer, Sodium benzoate 20 mg/ml, pH 7.5, 25° C.): 1060 µg/mL (≈ 3.55 mM)
solubility at 48 h ([3]; pH 7.5, aqueous buffer, Tween 80 10 mg/ml, pH 7.5, 25° C.): 1180 µg/mL (≈ 3.96 mM)
solubility at 48 h ([3]; pH 7.5, aqueous buffer, β-Cyclodextrin 10 mg/ml, pH 7.5, 25° C.): 4390 µg/mL (≈ 14.7 mM)
